Results on 26 compounds are retold here after patent US3932459A, “Novel cyclopropanecarboxylic acid esters” (Sumitomo Chemical Company, Limited, priority 1973, dated 1976).

Series [1] has as its system fourth instar larvae of diamond-back moth (Plutella maculipennis). Description: Emulsifiable concentrate sprayed on chinese cabbage leaves, diamond-back moth larvae (Experiment 2). Format: in vivo. Particulars: for LC50: Plutella, 48 h, 20% emulsifiable concentrate diluted with water, after 2 days, read-out: LC50 (50% lethal concentration); for Relative efficacy: corresponding chrysanthemic acid ester (control) = 1.0. The method, then:
Each of the present compounds (1), (2) and (5), and the corresponding chrysanthemic acid esters were individually formulated into a 20% emulsifiable concentrate by usual methods.
10 ml of each of the emulsifiable concentrates which had been diluted with water to the required concentration were sprayed on to four leaves of chinese cabbage grown up to a 3- to 4-leave stage. Then the leaves were placed in a glass Petri dish of 14 cm in diameter and 7 cm high, and 10 fourth instar larvae of diamond-back moth (Plutella maculipennis) were liberated therein. After 2 days, the dead and alive were counted.

Series [2] concerns green rice leafhoppers (Nephotettix cincpriceps). Nature of the series: Knock-down of green rice leafhoppers on treated rice seedlings (Experiment 3). Format: in vivo. Particulars: 400-fold aqueous diluted solution of 20% emulsifiable concentrate. How it is done:
Each of the present compounds (1) to (7), and the corresponding chrysanthemic acid esters were individually formulated into a 20% emulsifiable concentrate by usual methods.
About 20 rice seedlings were grown up to a 3- to 4-leave stage in a flower pot of 10 cm in diameter, and the 400-fold aqueous diluted solution of each emulsifiable concentrate was applied thereto by means of a turn table.
After air-drying, each pot was placed in a 5 liter glass beaker and covered with gauze at the top. Then, 20 green rice leafhoppers (Nephotettix cincpriceps) were liberated therein and the number of knocked down insects were counted at definite time intervals.

Series [3] has as its system house-fly adults (Musca domestica). Nature of the series: Oil spray, Campbel's turn table apparatus, house-fly adults (Experiment 1). Format: in vivo. Conditions: for LC50: Musca domestica, read-out: LC50 (50% lethal concentration); for Relative efficacy: corresponding dl-trans-chrysanthemic acid ester (control) = 1.0. How it is done: The dl-trans isomer of each of the present compounds (1), (2), (4) and (7), and the corresponding dl-trans-chrysanthemic acid esters were individually dissolved in deodorized kerosene to prepare oil sprays of required concentration.
5 ml of each of the oil sprays were sprayed, using Campbel's turn table apparatus ("Soap and Sanitary Chemicals," Vol. 14, No. 6, 119, 1938). Twenty seconds after spraying, the shutter was opened, and about 100 house-fly adults (Musca domestica) per group were exposed to the descending mist for 10 minutes and then transferred to the observation cage. In the cage, the flies were fed and allowed to stand for one day at room temperature.
Thereafter, the number of killed flies was counted to calculate the mortality thereof.

The test system of another series is insects. Particulars: J. Farkas et al., Chem. Listy 52, 688, 1958; cited from earlier work.

In brackets after ≈: the same amount, converted by molar mass.

Turning to `CC(C)=CC1C(C(=O)OCc2ccc(Cc3ccccc3)s2)C1(C)C` (stereo not shown), in series [1], the LC50 amounted to 85 µg/mL (≈ 240 µM) and the Relative efficacy came out at 1.0. Also, in series [2], the “KT50 (a time required for 50% knock-down)” value turned out to be 37 min.
The matching figures for `CC(C)=CC1C(C(=O)OCc2ccc(Oc3ccccc3)s2)C1(C)C` (stereo not shown): 97 µg/mL (≈ 272 µM), 1.0 and 45 min.
Regarding `CC(C)=CC1C(C(=O)OCc2csc(Cc3ccccc3)c2)C1(C)C` (stereo not shown), the “KT50 (a time required for 50% knock-down)” value in series [2] was determined as 53 min.
The same measure, in the same setting: next, `CC(C)=CC1C(C(=O)OCc2cc3c(s2)CCCC3)C1(C)C` (stereo not shown): 46 min.
Turning to `CC(C)=CC1C(C(=O)OCc2cc3c(s2)CCC3)C1(C)C` (stereo not shown), in series [1], the LC50 is 114 µg/mL (≈ 374 µM) and the Relative efficacy turned out to be 1.0. Moreover, in series [2], the “KT50 (a time required for 50% knock-down)” value came out at 43 min.
Consider `C=CCc1ccc(COC(=O)C2C(C=C(C)C)C2(C)C)s1` (stereo not shown), for which the “KT50 (a time required for 50% knock-down)” value in series [2] came out at 40 min.
In the case of `C#CCc1ccc(COC(=O)C2C(C=C(C)C)C2(C)C)s1` (stereo not shown), in series [2], the “KT50 (a time required for 50% knock-down)” value stood at 38 min.
Same read-out and setting: to `CC(C)=CC1C(C(=O)OCc2ccc(C3C=CCC3)s2)C1(C)C` (stereo not shown) belongs 40 min.
Regarding `CC(C)=C[C@@H]1[C@@H](C(=O)OCc2ccc(Cc3ccccc3)s2)C1(C)C` (relative stereo), the LC50 in series [3] (24 h) was determined as 386 µg/mL (≈ 1090 µM). The same compound gave a Relative efficacy in series [3] of 1.0.
Turning to `CC(C)=C[C@@H]1[C@@H](C(=O)OCc2cc3c(s2)CCCC3)C1(C)C` (relative stereo), the LC50 in series [3] (24 h) worked out at 834 µg/mL (≈ 2620 µM). In addition, in series [3], the Relative efficacy was 1.0.
With `CC(C)=C[C@@H]1[C@@H](C(=O)OCc2ccc(Oc3ccccc3)s2)C1(C)C` (relative stereo), in series [3] (24 h), the LC50 amounted to 540 µg/mL (≈ 1510 µM). In series [3], the Relative efficacy is 1.0.
As for `C#CCc1ccc(COC(=O)[C@@H]2[C@@H](C=C(C)C)C2(C)C)s1` (relative stereo), the LC50 in series [3] (24 h) was 858 µg/mL (≈ 2840 µM). In addition, the Relative efficacy in series [3] was 1.0.
On the same counts, the results for `CC1(C)[C@H](C=C(Cl)Cl)[C@H]1C(=O)OCc1ccc(Cc2ccccc2)s1` (relative stereo) [dl-Trans isomer of present compound (1), 5-benzyl-2-thenyl 2',2'-dimethyl-3'-(2",2"-dichlorovinyl)-cyclopropanecarboxylate] are 90 µg/mL (≈ 228 µM) and 4.3.
The matching figures for `CC1(C)[C@H](C=C(Cl)Cl)[C@H]1C(=O)OCc1ccc(Oc2ccccc2)s1` (relative stereo) [dl-Trans isomer of present compound (2), 5-Phenoxy-2-thenyl 2',2'-dimethyl-3'-(2",2"-dichlorovinyl)-cyclopropanecarboxylate]: 135 µg/mL (≈ 340 µM) and 4.0.
The matching figures for `CC1(C)[C@H](C=C(Cl)Cl)[C@H]1C(=O)OCc1cc2c(s1)CCCC2` (relative stereo) [dl-Trans isomer of present compound (4), 4-5-Tetramethylene-2-thenyl 2',2'-dimethyl-3'-(2",2"-dichlorovinyl)-cyclopropanecarboxylate]: 217 µg/mL (≈ 604 µM) and 3.8.
On to `C#CCc1ccc(COC(=O)[C@@H]2[C@@H](C=C(Cl)Cl)C2(C)C)s1` (relative stereo) [dl-Trans isomer of present compound (7), 5-Propargyl-2-thenyl 2',2'-dimethyl-3'-(2",2"-dichlorovinyl)-cyclopropanecarboxylate], for which the LC50 in series [3] (24 h) turned out to be 205 µg/mL (≈ 597 µM). In series [3], this compound had a Relative efficacy of 4.2.
With `CC1(C)C(C=C(Cl)Cl)C1C(=O)OCc1ccc(Cc2ccccc2)s1` (stereo not shown) [Present compound (1), 5-benzyl-2-thenyl 2',2'-dimethyl-3'-(2",2"-dichlorovinyl)-cyclopropanecarboxylate], in series [1], the LC50 came to 28 µg/mL (≈ 70.8 µM) and the Relative efficacy worked out at 3.0. In series [2], the “KT50 (a time required for 50% knock-down)” value came out at 17 min.
The matching figures for `CC1(C)C(C=C(Cl)Cl)C1C(=O)OCc1ccc(Oc2ccccc2)s1` (stereo not shown) [Present compound (2), 5-Phenoxy-2-thenyl 2',2'-dimethyl-3'-(2",2"-dichlorovinyl)-cyclopropanecarboxylate]: 37 µg/mL (≈ 93.1 µM), 2.6 and 28 min.
Regarding `CC1(C)C(C=C(Cl)Cl)C1C(=O)OCc1csc(Cc2ccccc2)c1` (stereo not shown) [Present compound (3), 5-Benzyl-3-thenyl 2',2'-dimethyl-3'-(2",2"-dichlorovinyl)-cyclopropanecarboxylate], in series [2], the “KT50 (a time required for 50% knock-down)” value turned out to be 30 min.
On to `CC1(C)C(C=C(Cl)Cl)C1C(=O)OCc1cc2c(s1)CCCC2` (stereo not shown) [Present compound (4), 4-5-Tetramethylene-2-thenyl 2',2'-dimethyl-3'-(2",2"-dichlorovinyl)-cyclopropanecarboxylate], for which, in series [2], the “KT50 (a time required for 50% knock-down)” value amounted to 24 min.
On to `CC1(C)C(C=C(Cl)Cl)C1C(=O)OCc1cc2c(s1)CCC2` (stereo not shown) [Present compound (5), 4,5-Trimethylene-2-thenyl 2',2'-dimethyl-3'-(2",2"-dichlorovinyl)-cyclopropanecarboxylate], for which, in series [1], the LC50 was determined as 47 µg/mL (≈ 136 µM) and the Relative efficacy came out at 2.4. Further, the “KT50 (a time required for 50% knock-down)” value in series [2] worked out at 21 min.
Take `C=CCc1ccc(COC(=O)C2C(C=C(Cl)Cl)C2(C)C)s1` (stereo not shown) [Present compound (6), 5-Allyl-2-thenyl 2',2'-dimethyl-3'-(2",2"-dichlorovinyl)-cyclopropanecarboxylate]: the “KT50 (a time required for 50% knock-down)” value in series [2] stood at 19 min.
With `C#CCc1ccc(COC(=O)C2C(C=C(Cl)Cl)C2(C)C)s1` (stereo not shown) [Present compound (7), 5-Propargyl-2-thenyl 2',2'-dimethyl-3'-(2",2"-dichlorovinyl)-cyclopropanecarboxylate], the “KT50 (a time required for 50% knock-down)” value in series [2] was found to be 15 min.
Regarding `CC1(C)C(C=C(Cl)Cl)C1C(=O)OCc1ccc(C2C=CCC2)s1` (stereo not shown) [Present compound (8), 5-(2'-cyclopentene-1'-yl)-2-thenyl 2",2"-dimethyl-3"-(2"',2"'-dichlorovinyl)-cyclopropanecarboxylate], in series [2], the “KT50 (a time required for 50% knock-down)” value was determined as 19 min.
Regarding `C=CCC1=C(C)C(OC(=O)C2C(C=C(Cl)Cl)C2(C)C)CC1=O` (stereo not shown) [allethronyl ester of the acid], the insecticidal activity result with insects was “close to that of chrysanthemic acid ester”.
As for Pyrethrin, the “LC50 (50% lethal concentration)” value in series [3] (house fly, in vivo, 24 h) is given as 216 mg/100 ml.
